Test results taken from paper PMC9838390, “Discovery and biosynthesis of karnamicins as angiotensin converting enzyme inhibitors” (Nature Communications, 2023).
Where “and” joins values, the source holds several entries; their conditions need not be identical. Identical values can stand only once.

System: KnmB1
Test: NADPH oxidation of KnmB1 and variants (340 nm)
Type: biochemical, L. rhizosphaerae NEAU-A2
Experimental: Hydrogen peroxide formation assay and NADPH oxidation […]
NADPH detection was carried out in the cuvette by NanoDrop 2000c (Fisher Scientific). NADPH signal at 340 nm was monitored in time using 6220 M–1 cm–1 as […]
Spectral data for new compounds […]
Reaction conditions: 50 mM Tris-HCl buffer (pH 7.5), 0.15 mM NADPH, and 2 μM KnmB1 or KnmB2. (e) NADPH oxidation of KnmB1 and variants. (f) NADPH oxidation of KnmB1 in the presence 24/32/36. (g) NADPH oxidation of KnmB1 and variants in the presence 24. Reaction conditions (e-g) for KnmB1 and their variants: 50 mM Tris-HCl buffer (pH 7.5), 0.15 mM NADPH, and 6 μM KnmB1 or variants, or 0.1 mM substrate 24/32/36. […]
2 μM KnmB2 or variants, or 0.1 mM substrate 24/32. […]
Source data are provided as a Source Data file. […]

CC(C)CCCCc1nc(-c2cc(O)cc(C(N)=O)n2)cs1 [Compound 24]
effector action on reduction of flavin in KnmB1 by NADPH (0.15 mM NADPH, 6 μM KnmB1, 0.1 mM compound (Fig. S131f)): could act as a non-substrate effector
NADPH oxidation of KnmB1 in the presence of compound (replicates 1, 2, 3) (Time 0): 0.0000 µM
NADPH oxidation of KnmB1 in the presence of compound, average value (Time 0): 0.0000 µM
NADPH oxidation of KnmB1 in the presence of compound (replicates 1, 2, 3) (Time 1): 2.9582 µM and 2.2830 µM and 2.5080 µM
NADPH oxidation of KnmB1 in the presence of compound, average value (Time 1): 2.5831 µM
NADPH oxidation of KnmB1 in the presence of compound (replicates 1, 2, 3) (Time 2): 6.8489 µM and 4.6945 µM and 5.9164 µM
NADPH oxidation of KnmB1 in the presence of compound, average value (Time 2): 5.8199 µM
NADPH oxidation of KnmB1 in the presence of compound (replicates 1, 2, 3) (Time 3): 8.2797 µM and 6.4309 µM and 6.4630 µM
NADPH oxidation of KnmB1 in the presence of compound, average value (Time 3): 7.0579 µM
NADPH oxidation of KnmB1 in the presence of compound (replicates 1, 2, 3) (Time 4): 9.7106 µM and 8.7942 µM and 8.6174 µM
NADPH oxidation of KnmB1 in the presence of compound, average value (Time 4): 9.0407 µM
NADPH oxidation of KnmB1 in the presence of compound (replicates 1, 2, 3) (Time 5): 11.9293 µM and 10.4662 µM and 10.1447 µM
NADPH oxidation of KnmB1 in the presence of compound, average value (Time 5): 10.8467 µM
NADPH oxidation of KnmB1 in the presence of compound (replicates 1, 2, 3) (Time 8): 16.3826 µM and 16.8650 µM and 14.9839 µM
NADPH oxidation of KnmB1 in the presence of compound, average value (Time 8): 16.0772 µM
NADPH oxidation of KnmB1 in the presence of compound (replicates 1, 2, 3) (Time 10): 19.9679 µM and 20.5788 µM and 17.6688 µM
NADPH oxidation of KnmB1 in the presence of compound, average value (Time 10): 19.4051 µM
NADPH oxidation of KnmB1 in the presence of compound (replicates 1, 2, 3) (Time 15): 26.9614 µM and 30.3537 µM and 23.0064 µM
NADPH oxidation of KnmB1 in the presence of compound, average value (Time 15): 26.7739 µM
NADPH oxidation of KnmB1 in the presence of compound (replicates 1, 2, 3) (Time 20): 35.3859 µM and 38.9550 µM and 30.1286 µM
NADPH oxidation of KnmB1 in the presence of compound, average value (Time 20): 34.8232 µM
NADPH oxidation of KnmB1 in the presence of compound (replicates 1, 2, 3) (Time 30): 48.2476 µM and 54.0515 µM and 41.3344 µM
NADPH oxidation of KnmB1 in the presence of compound, average value (Time 30): 47.8778 µM
NADPH oxidation of KnmB1 in the presence of compound (replicates 1, 2, 3) (Time 40): 59.6785 µM and 66.9936 µM and 50.7878 µM
NADPH oxidation of KnmB1 in the presence of compound, average value (Time 40): 59.1533 µM
NADPH oxidation of KnmB1 in the presence of compound (replicates 1, 2, 3) (Time 60): 78.3119 µM and 86.3505 µM and 66.4309 µM
NADPH oxidation of KnmB1 in the presence of compound, average value (Time 60): 77.0311 µM
